From patent US20030138388A1, “Peptides and the use thereof in darkening the skin” (priority 2001, published 2003)

Tests used:
[1] = system: keratinocyte-melanocyte co-cultures; assay: Induced pigmentation in keratinocyte-melanocyte co-cultures, DOPA staining and computerized image analysis; format: cell-based, Human
Method: The peptides Peptide 1 and Peptide 2 and various pigments were tested, alone or in combination, with keratinocyte-melanocyte cultures for their effect on cell pigmentation, using DOPA staining and computerized image analysis. The pigments that were tested were the pigmented natural extract Hedychium spicatum extract sold as Kapur Kachali from Amsar Private Limited (Indore, India), copper chloride from Sigma (St. Louis, Mo.) and the water-soluble melanin derivatives Melasyn-100™ from San-mar laboratories, Inc. (Elmsford, N.Y.) and MelanZe™ from Zylepsis (Ashford, Kent, United Kingdom). The pigments were tested at concentrations ranging from 0.0001%(W/V) to 1%(W/V) and peptides were tested at 50 μM.
The assay was conducted in the following manner. Human HaCaT keratinocytes (Boukamp P., et al., J Cell Biol 106, 3, 761-771 (1988)) were maintained in Dulbecco's Modified Eagle's Medium (DMEM) containing 10% fetal bovine serum (FBS), 4.5 mg/ml glucose, 2 mM L-glutamine, 50 U/ml penicillin and 50 μg/ml streptomycin (Life Technologies, Gaithersburg, Md.). Cells were maintained at <80% confluency in 5% CO2 (v/v) and were used in experimental procedures up to culture passage 15. Human primary melanocytes (Clonetics, San Diego, Calif. or Cascade Biologics, Portland, Oreg.) were maintained according to manufacturer's instructions. To establish keratinocyte-melanocyte co-cultures, 6×10^4 melanocytes were plated in each well of a 24 well plate and maintained according to manufacturer's instructions.
Melanocytes were rinsed three times with melanocyte growth media without PMA and keratinocytes (6×10^4) were plated to establish the co-cultures in this media. Co-cultures were treated for three days with test peptides and pigments, and assayed for cell viability and pigment level on the forth day. Cell viability was assayed using alamarBlue™ (Acumed International, West Lake, Ohio) following manufacturer's instructions. No change in viability was observed following three daily treatments with all tested material. All in vitro experiments were performed in triplicates, and were repeated at least three times.
Following three daily treatments, the co-cultures were briefly fixed (10% buffered formalin from Fisher Scientific, 15 minutes), washed three times with Phosphate-buffered saline (PBS, from Life Technologies) and stained with L-3,4-Dihydroxyphenylalanine (DOPA, from Sigma, St. Louis, Mo.) 0.1% in PBS, for 5 hours at 37° C., followed by two PBS washes and formalin (10%, overnight) fixation. DOPA is a substrate for tyrosinase, therefore an increase in staining represents increased tyrosinase activity and pigment production. DOPA-stained monolayers were used for image analysis. All images were obtained and analyzed with Image Pro Plus 3.0 software (Media Cybernetics, Silver Spring, Md.). Parameters measured were surface area of stained material within melanocyte and keratinocytes and the total surface area of the cells in the culture, and the relative pigmented area was calculated. A value of 100% was assigned to untreated controls, and values of treatment groups were normalized to their relevant controls. In all experiments there was no difference between PBS-treated cells and untreated controls. Data are presented with standard deviation (SigmaPlot® 5.0, SPSS Science, Chicago, Ill.).
Forskolin (Sigma, St. Louis, Mo.), a known inducer of pigmentation, served as a positive control and a reference point. Forskolin was administered at 1% (W/V).

[2] = system: Dark skinned Yucatan microswine; assay: Induced pigmentation in vivo, F&M-stained histological skin sections scored for pigment deposition; set-up: key: −1: slight lightening; 0: No change; 1: Minimal increase in pigment deposition; 2: Increased pigment deposition; 3: Strong increase in pigment deposition, some increase in caps; 4: Strong increase in pigment deposition, strong increase in caps; conditions: topical twice a day, five days/week, eight or nine weeks, average of all sites of responsive swine
Method: Compositions of the present invention were tested for their ability to induce in vivo pigmentation in skin cells in the following experiment. Dark skinned Yucatan microswine (Charles River, Portland, Me.) were housed in appropriately sized cages in an environmentally controlled room with a 12-hour light-12-hour dark photoperiod and supplied with food and water ad libitum. Animal care was based on the “Guide for the Care and Use of Laboratory Animals”, NIH Publication No. 85-23. Twenty μl of test peptides were applied topically, twice a day, five days/week, for eight or nine weeks, on the dorsum of the swine. Treatments of individual swine were always arranged in a head to tail order on one side, and in a tail to head order on the other side of the animal. Biopsies were taken using standard techniques.
Sections from the skin biopsies were stained with Hematoxylin and Eosin (H&E), or with Fontana-Mason (F&M), using standard procedures (Sheenan DC, Hrapckak BB, eds., Theory and Practice of Histo-technology. p. 223, 277, The C. V. Mosby Co., St. Louis (1980)). F&M staining identifies silver nitrate reducing molecules. In skin, this non-specific stain identifies primarily melanin. At least three sections per biopsy were processed. […]
F&M-stained histological skin sections were evaluated for the change in pigment deposition within the treated site. […]

[3] = Table 1, 50 μM, three daily treatments, relative pigmented area after DOPA staining, control 0.184
[4] = Table 1, 50 μM, three daily treatments, versus control

## [Cl][Cu][Cl] [CuCl2, copper chloride, reference compound]
[1]; Table 2, CuCl2 0.001% (w/v), control 0.029
  Mean area: 0.063
[1]; Table 2, CuCl2 0.001% (w/v), normalized to control
  % increase: 220%

## C=C[C@@]1(C)CC(=O)[C@]2(O)[C@@]3(C)[C@@H](O)CCC(C)(C)[C@@H]3[C@H](O)[C@H](OC(C)=O)[C@@]2(C)O1 [Forskolin, reference compound]
[2]; positive control at 1% (W/V)
  Score (pigment deposition): 1
[1]; Table 2, Forskolin 1% (w/v), positive control, control 0.029
  Mean area: 0.067
[1]; Table 2, Forskolin 1% (w/v), positive control, normalized to control
  % increase: 231.0%

## H2-Leu-Ile-Gly-Arg-Leu-NH2 (H-LIGRL-NH2) [Peptide 2]
[1]; [3]
  Mean area: 0.240
[1]; [4]
  % increase: 30.8%

## H2-Leu-Ile-Gly-Arg-NH2 (H-LIGR-NH2) [Peptide 1]
[2]; peptide at 250 μM or 500 μM
  Score (pigment deposition): 2
[1]; [3]
  Mean area: 0.270
[1]; [4]
  % increase: 46.8%
[1]; Table 2, Peptide 1 50 μM, normalized to control
  % increase: 279%
[1]; Table 2, Peptide 1 50 μM, three daily treatments, control 0.029
  Mean area: 0.080
